Literature values, collected in US20080171724A1, “Phosphonate Derivatives of Mycophenolic Acid” (GILEAD SCIENCES, INC., priority 2004, published 2008).

Conditions: after oral or intravenous administration; converted to active metabolite mycophenolic acid

- fraction of the drug cleared by glucuronidation and excreted in the urine: over 90%
SMILES: COc1c(C)c2c(c(O)c1C/C=C(\C)CCC(=O)OCCN1CCOCC1)C(=O)OC2 [Mycophenolate mofetil]
